# How the values were obtained:
# Format in all cases: physicochemical
# [1] = Evaluation of closed container thermal degradation (solid state, 1 week; HPLC, XRPD, color); details: tight container; for Bulk (XRPD): 50° C. and 80° C.
# Protocol: 5-(5-((1R,2S)-2-fluorocyclopropyl)-1,2,4-oxadiazol-3-yl)-2-methylphenyl)imidazo[1,2-a]pyridine-3-carboxamide Form A (10 mg) was placed in a closed vial at 50° C. and 80° C. chamber for 1 week. The initial purity of (5-(5-((1R,2S)-2-fluorocyclopropyl)-1,2,4-oxadiazol-3-yl)-2-methylphenyl)imidazo[1,2-a]pyridine-3-carboxamide Form A was 99.7%.
# The samples were examined by XRPD for physical stability determination and by HPLC for chemical stability determination indicated by the presence of degradation products (DP).
# The HPLC method used is described in Example 13-1. The color (CL) of the samples was evaluated by visual observation.
# (5-(5-((1R,2S)-2-fluorocyclopropyl)-1,2,4-oxadiazol-3-yl)-2-methylphenyl)imidazo[1,2-a]pyridine-3-carboxamide fumaric acid co-crystal (10 mg) was placed in a closed vial at 50° C. and 80° C. chamber for 1 week. The initial purity of (5-(5-((1R,2S)-2-fluorocyclopropyl)-1,2,4-oxadiazol-3-yl)-2-methylphenyl)imidazo[1,2-a]pyridine-3-carboxamide Fumaric acid co-crystal was 99.7%.
# The HPLC method used is described in Example 19-1. The color (CL) of the samples was evaluated by visual observation.
# [2] = Evaluation of Xenon light exposure (HPLC, XRPD, color); details: Xenon light (approx. 1200 kLuxh, 25° C.)
# Protocol: (§1) 5-(5-((1R,2S)-2-fluorocyclopropyl)-1,2,4-oxadiazol-3-yl)-2-methylphenyl)imidazo[1,2-a]pyridine-3-carboxamide Form A (10 mg) was placed in a container and exposed to approximately 1200 kLuxh of Xenon light at 25° C. The sample was examined by XRPD for physical stability determination and by HPLC for chemical stability determination indicated by the presence of degradation products (DP). The HPLC method used is described in Example 13-1. The color (CL) of the samples was evaluated by visual observation.
# as §1, with “Fumaric acid co-crystal” for “Form A”, “19-1.” for “13-1.”
# [3] = Hygroscopicity by DVS at 25° C.
# Protocol: The hygroscopicity of 5-(5-((1R,2S)-2-fluorocyclopropyl)-1,2,4-oxadiazol-3-yl)-2-methylphenyl)imidazo[1,2-a]pyridine-3-carboxamide Form A was evaluated by DVS at 25° C. and various RH values. The samples was examined by XRPD for physical stability determination.
# The hygroscopicity of 5-(5-((1R,2S)-2-fluorocyclopropyl)-1,2,4-oxadiazol-3-yl)-2-methylphenyl)imidazo[1,2-a]pyridine-3-carboxamide fumaric acid co-crystal was evaluated by DVS at 25° C. and various RH values. The samples was examined by XRPD for physical stability determination.
Bulk (XRPD) [1],CL (color) ([1]; 50° C.),"DP (%) degradation products, Bulk (HPLC) ([1]; 50° C.) [%]",CL (color) ([1]; 80° C.),"DP (%) degradation products, Bulk (HPLC) ([1]; 80° C.) [%]",Bulk (XRPD) [2],CL (color) [2],"DP (%) degradation products, Bulk (HPLC) [2] [%]",Desorporption. Weight % change ([3]; 0 % RH) [%],Sorption Weight % change ([3]; 0 % RH) [%],Desorporption. Weight % change ([3]; 10 % RH) [%],Sorption Weight % change ([3]; 10 % RH) [%],Desorporption. Weight % change ([3]; 20 % RH) [%],Sorption Weight % change ([3]; 20 % RH) [%],Desorporption. Weight % change ([3]; 30 % RH) [%],Sorption Weight % change ([3]; 30 % RH) [%],Desorporption. Weight % change ([3]; 40 % RH) [%],Sorption Weight % change ([3]; 40 % RH) [%],Desorporption. Weight % change ([3]; 50 % RH) [%],Sorption Weight % change ([3]; 50 % RH) [%],SMILES,other results
Bulk (XRPD): No change,No change,0.06,No change,0.07,Bulk (XRPD): No change,No change,0.06,0.0000,0.0000,0.0167,0.0167,0.0501,0.0234,0.0768,0.0468,0.0802,0.0601,0.0735,0.0568,"Cc1ccc(-c2noc([C@H]3C[C@@H]3F)n2)cc1NC(=O)c1cnc2ccccn12 [Form A, N-(5-(5-((1R,2S)-2-fluorocyclopropyl)-1,2,4-oxadiazol-3-yl)-2-methylphenyl)imidazo[1,2-a]pyridine-3-carboxamide]",Desorporption. Weight % change ([3]; 60 % RH): 0.0969%; Sorption Weight % change ([3]; 60 % RH): 0.0868%; Desorporption. Weight % change ([3]; 70 % RH): 0.1369%; Sorption Weight % change ([3]; 70 % RH): 0.1169%; Desorporption. Weight % change ([3]; 80 % RH): 0.1803%; Sorption Weight % change ([3]; 80 % RH): 0.1436%; Desorporption. Weight % change ([3]; 90 % RH): 0.2338%; Sorption Weight % change ([3]; 90 % RH): 0.2104%
Bulk (XRPD): No change,No change,0.15,No change,0.08,Bulk (XRPD): No change,No change,0.10,0.0000,0.0000,0.0153,−0.0019,0.0307,0.0038,0.0939,0.0383,0.0996,0.0632,0.1130,0.0843,"Cc1ccc(-c2noc([C@H]3C[C@@H]3F)n2)cc1NC(=O)c1cnc2ccccn12 [fumaric acid co-crystal, N-(5-(5-((1R,2S)-2-fluorocyclopropyl)-1,2,4-oxadiazol-3-yl)-2-methylphenyl)imidazo[1,2-a]pyridine-3-carboxamide fumaric acid co-crystal]",Sorption Weight % change ([3]; 60 % RH): 0.0958%; Desorporption. Weight % change ([3]; 70 % RH): 0.1590%; Sorption Weight % change ([3]; 70 % RH): 0.1322%; Desorporption. Weight % change ([3]; 80 % RH): 0.1897%; Sorption Weight % change ([3]; 80 % RH): 0.1590%; Desorporption. Weight % change ([3]; 90 % RH): 0.1935%; Sorption Weight % change ([3]; 90 % RH): 0.2107%

# Source: patent US20220194936A1, “CRYSTALLINE FORMS OF N-(5-(5-((1R,2S)-2-FLUOROCYCLOPROPYL)-1,2,4-OXADIAZOL-3-YL)-2-METHYLPHENYL)IMIDAZO[1,2-A]PYRIDINE-3-CARBOXAMIDE” (Novartis AG, priority 2019, published 2022)
